Where “and” joins values, the source holds several entries; their conditions need not be identical. Identical values can stand only once. Entries after “also recorded” stand apart in the source; their conditions may differ. Like-named read-outs stand apart in the source and are kept apart here.
How the values were obtained:
[1] = Open-field motor activity measurement; assay type: in vivo, balb-c mice; conditions: for changes in open-field activity: administered at the same dose as compound 8739
Description: The effect of compound 8739 on general motor activity was determined. The general motor activity of balb-c mice was measured in a Stoelting electronic activity monitor apparatus during a 90-min period following an intraperitoneal injection of the compound as a solution in 15% propylene glycol in 0.1 M NaHCO3. A detailed description of the apparatus is reported in Stewart R. J., Campbell A., Spark G. and Balessarini R. J. Psychopharmacol. 60, 281 (1979).
The test group (six mice) received an i.p. injection of the drug in a vehicle (15% propylene glycol in 0.1 M NaHCO3, a total volume of between about […].). The six control mice received the same volume of vehicle, but no drug. The results (Shown in FIG. 1,) are expressed as the percent decrease in open field activity for the test group versus the control group. […] The response was dose dependant with higher doses of compound 8739 resulting in a greater decrease in general motor activity.
The effects of the mode of delivery of Compound 8739 (oral vs. i.p.) on the general open-field activity of mice (n=6) was assessed. […] A 40-50% decrease in activity occurred when either delivery method was employed.

[2] = previous reports, Chan and Fishman, SCIENCE (1978); cited from earlier work
[3] = Circling behavior in rats with unilateral nigrostriatal lesions; assay type: in vivo; conditions: for AVERAGE ROTATION SCORES (Rotations/minutes) Contralateral / AVERAGE ROTATION SCORES (Rotations/minutes) Ipsilateral: 30-min period; for circling behavior (in words): rats with nigrostriatal lesions, i.p.
Description: Dopamine agonists such as apomorphine and amphetamine cause circling behavior in animals with nigrostriatal lesions.
Unilateral nigrostriatal lesions in rats were produced by administering unilateral injections of 6-OH dopamine into the nigrostriatum pathway. Seven days later, these animals were i.p. injected with the test drugs and circling behavior was recorded as rotations per minute during a 30-min period in the test apparatus, Ungerstedt U. and Arbathnott G. W., Brain Res. 24, 485-493 (1970).

[4] = Test for tolerance: food consumption during long-term administration; assay type: in vivo, mice; conditions: for tolerance: food intake
Description: The effect of long-term administration of compound 8739 on the pattern of food consumption of mice was compared to the long-term effects of the administration of amphetamine. Daily i.p. injections of compound 8739 (20 mg/kg) were given to test animals and daily i.p. injections of amphetamine (2 mg/kg) were given to control animals for 21 days. 24 hours after the first injection and about every five days after that, the animals were food-deprived for 24 hours with water freely available, and then were tested for food consumption for one-hour beginning at five minutes after receiving their daily injection.
FIG. 4 plots the percent decrease in food consumption versus time.

[5] = animal tests, background; cited from earlier work
[6] = reported in the literature; cited from earlier work
[7] = Brain penetration index (BPI) determination, brain uptake relative to liver; assay type: in vivo, male balb C mice; conditions: for crossing of the blood brain barrier (in words): variations of the carrier; for BPI Value (%): BPI=[brain]/[liver]x100, 5 minutes after s.c. injection; for brain uptake / BPI relative to dopamine: compared with dopamine
Description: A brain penetration index (BPI) determination was used as a criterion for measuring the capacity of a compound to cross the blood brain barrier. Shashoua, V. E., Jacob, J. N., Ridge, R., Campbell, A. and Baldessarini, R. J., J. Med. Chem. 27, 659 (1984). The BPI is a measure of the uptake of a compound by the brain relative to its uptake by the liver. The liver is chosen as a reference since it is an organ which has no barrier to diffusable molecules present in the blood. Moreover, even if subcutaneous injections are used, the injected material tends to remain largely at the site of the injection and slowly diffuse into the circulation. Therefore, the amount of material in the liver will reflect the amount available rather than the initial dose injected.
Measurements of the quantity of the drug present in the brain and liver were measured at five minutes after a subcutaneous injection and were used to calculate the BPI, the equation being: […]
For these measurements, compound 8739 was synthesized from ^14C-labeled dopamine. Thirty μCi of dopamine labeled hydrochloride was mixed with 0.1 mg of unlabeled dopamine hydrobromide and reacted with a two-fold excess of DHA anhydride. The reaction was run overnight; the product was then evaporated to dryness and dissolved in ethanol. The compound was identified as 8739 by its migration properties on thin-layer chromatography using chloroform:methanol as one solvent and dimethylformamide (DMF) as the other. The migration properties were equivalent to those of the unlabeled product.
^14C-labeled 8739 was dissolved in 15% propylene glycol in 0.1 M NaHCO3 and then injected subcutaneously (s.c.) into male balb C mice (20±2 g). After 5 minutes the animals were sacrificed by cervical fracture and the brain and liver were dissected out, weighed and homogenized in 8 and 10 ml of Brain Protein Solvent (BPS) buffer, respectively [BPS=2% sodium dodecyl sulfate in 0.03 M Tris, 6 M urea, pH 7.6, 0.01 M EDTA and 0.14 N NaCl]. Aliquots were then counted for ^14C content in 10 ml of a liquid scintillation fluid, Liquiscent (National Diagnostic Company, Somerville, N.J.) using a Beckman liquid scintillation counter. The ^14C counts were then used to calculate the total quantity of compound 8739 present in the brain per gram of tissue as compared to that in the liver. The ratio of the amount in the brain as a percent of that present in liver was determined.

[8] = Food consumption measurements; assay type: in vivo, balb-c mice; conditions: for activity as an appetite-suppressant (in words): variations of the carrier
Description: The effect of compound 8739 on food consumption was determined for balb-c mice that were food deprived for 24 hr, with water freely available. The six test mice were given an i.p. injection of compound 8739 as a solution in 15% propylene glycol in 0.1 M NaHCO3, a total volume of between about 0.1-0.3 ml. The six control mice received the same volume of vehicle, but no drug. The quantity of “mouse chow” eaten during the 60-min period following the injections was determined. The results, also shown in FIG. 1, are expressed as the percent decrease in food consumption for the test group versus the control group. […] The decrease was dose dependent, with higher doses of compound 8739 causing greater decrease in food intake. The same experiment was conducted using oral administration of compound 8739.

[9] = Pattern of distribution of 14C-labeled 8739 in membranes of the central nervous system (P1/P2 fractions); assay type: in vivo, mice
Description: The fraction P1 containing nuclear and cell membrane components was sedimented for 5 min at 2,500 rpm at 0° C. The supernatant containing the crude synaptosomal fraction was next centrifuged at 13,000 rpm for 30 min to yield a pellet containing the crude synaptosomal fraction (P2). P1 and P2 were then dissolved in BPS, and the amount of label and protein in each fraction was determined.

[10] = Self-stimulation test (electrodes in lateral hypothalamus); assay type: in vivo; conditions: rats
Description: A self-stimulation test has been used to measure the capacity of a given pharmacological agent to inhibit rats from receiving self-induced electrical stimuli via electrodes implanted in their brains (lateral hypothalamus). Stellar J. R. and Stellar E., The Neurobiology of Motivation and Reward, Springer-Verlag, New York, 1985. Animals will press levers to receive a pulse of current from the implanted electrode at a rate dependent upon the quantity of current that is being delivered as a reward. […] R.). […] A plot of the log of the frequency of the delivered pulses vs. the rate of level press for an animal gives the self-stimulation reward curve. Injections of drugs which have a neuroleptic-type or tranquilizing effect can depress the rate of self-stimulation, shifting the response to higher current deliveries. Pemozide can give a depressed rate by about 90%. […] The animal continues to press the lever at the rate equivalent to a non-injected control or one receiving the vehicle alone.

[11] = Test for tolerance: open field activity during daily injections; assay type: in vivo, mice; conditions: 20 mg/kg i.p. daily for 21 days
Description: The effects of daily i.p. injections of compound 8739 at a dose of 20 mg/kg on open field activity and food consumption was tested to determine whether tolerance to the drug was induced over time. The open field activity of six test mice and six control mice was monitored for five days. Then, the test mice were given i.p. injections of the drug in a vehicle and the control mice were given i.p. injections of the vehicle only. This regimen was carried out for a 21 day test period. At the end of the 21 days, the vehicle alone was given daily to both test and control mice and open field activity and food consumption was monitored for an additional six days.
FIG. 3 plots the percent decrease in open field activity of the test mice (n=6) as compared to the controls (n=6). […] Upon initation of injections, there was a 30% to 60% decrease in open field activity. […] Beginning at day 22 and daily until day 27, vehicle alone was given to both groups.

D-1 dopamine receptors = assay: Dopamine receptor binding assay (D-1)
D-2 dopamine receptors = D-2 dopamine receptors (Homo sapiens, UniProt P14416); assay: Dopamine receptor binding assay (D-2)
Swelling of the brain = assay: Swelling of the brain
Description: Another favorable property of compound 8739 was unexpected. […] Chan, P. H., Fishman, R. A., SCIENCE, Vol. 20, 358-360 (1978).

[12] = in vivo
Description: Many of the undesirable side effects of amphetamines were absent. […] Failure to induce tolerance was unexpected.

[13] = 14C-labeled, s.c. injection, mice, 5 minutes after injection
[14] = 14C-labeled 8739 s.c., mice, brain, 30 min

D-1 dopamine receptors, sequence (P21728 whole entry): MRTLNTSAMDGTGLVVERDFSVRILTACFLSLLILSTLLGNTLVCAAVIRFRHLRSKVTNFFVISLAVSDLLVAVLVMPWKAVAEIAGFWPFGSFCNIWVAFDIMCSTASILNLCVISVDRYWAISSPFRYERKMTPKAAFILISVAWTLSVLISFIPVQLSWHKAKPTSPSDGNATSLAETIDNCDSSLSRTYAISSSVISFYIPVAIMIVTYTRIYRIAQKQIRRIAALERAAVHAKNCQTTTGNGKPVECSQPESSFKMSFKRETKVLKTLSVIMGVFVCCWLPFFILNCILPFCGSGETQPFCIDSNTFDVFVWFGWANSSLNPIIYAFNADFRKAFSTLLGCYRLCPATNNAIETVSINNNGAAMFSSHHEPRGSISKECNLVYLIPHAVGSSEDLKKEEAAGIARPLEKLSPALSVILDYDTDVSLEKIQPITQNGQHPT
D-2 dopamine receptors, sequence (P14416 whole entry): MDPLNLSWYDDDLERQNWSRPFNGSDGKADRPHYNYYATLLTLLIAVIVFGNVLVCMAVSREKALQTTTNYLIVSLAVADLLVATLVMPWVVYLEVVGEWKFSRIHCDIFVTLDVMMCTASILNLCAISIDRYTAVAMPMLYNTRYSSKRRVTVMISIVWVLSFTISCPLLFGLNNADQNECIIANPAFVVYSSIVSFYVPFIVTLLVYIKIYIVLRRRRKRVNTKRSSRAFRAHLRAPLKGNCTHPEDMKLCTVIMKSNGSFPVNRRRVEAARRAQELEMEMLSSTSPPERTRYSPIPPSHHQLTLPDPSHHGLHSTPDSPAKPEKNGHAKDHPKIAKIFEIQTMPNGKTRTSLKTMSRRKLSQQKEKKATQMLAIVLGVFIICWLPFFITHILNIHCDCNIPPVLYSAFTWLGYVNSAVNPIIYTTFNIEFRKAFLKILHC

SMILES: CCC=CCC=CCC=CCC=CCC=CCC=CCCC(=O)O [carrier molecule (T), 4, 7, 10, 13, 16, 19 docosahexa-enoic acid, reference compound]
- changes in open-field activity [1]: No significant changes
- swelling of the brain [2]: induce swelling of the brain

SMILES: CC(N)Cc1ccccc1 (stereo not drawn) [Amphetamine]
- AVERAGE ROTATION SCORES (Rotations/minutes) Contralateral ([3]; 3.0 mg/kg i.p.): 0.4 Rotations/minutes
- AVERAGE ROTATION SCORES (Rotations/minutes) Ipsilateral ([3]; 3.0 mg/kg i.p.): 2.5 Rotations/minutes
- AVERAGE ROTATION SCORES (Rotations/minutes) Contralateral ([3]; 5.0 mg/kg i.p.): 0.92 Rotations/minutes
- AVERAGE ROTATION SCORES (Rotations/minutes) Ipsilateral ([3]; 5.0 mg/kg i.p.): 3.32 Rotations/minutes
- circling behavior (in words) [3]: circling rapidly to the ipsilateral lesion side
- decrease in food intake over time ([4]; 2 mg/kg i.p. daily for 21 days): virtually disappeared after 15 days
- tolerance ([4]; 2 mg/kg i.p. daily for 21 days): complete tolerance
- time within which tolerance develops [5]: 3 to 15 days

SMILES: O=C[C@H](O)[C@@H](O)[C@H](O)[C@H](O)CO [D-glucose]
- BPI Value (%) [6]: 33%
- BPI index [6]: 33

SMILES: CCCCCCCCCCCCCCCCCCCCCC(=O)NCCc1ccc(O)c(O)c1
- crossing of the blood brain barrier (in words) [7]: does not effectively cross the blood brain barrier
- activity as an appetite-suppressant (in words) [8]: essentially inactive

SMILES: CN1CCc2cccc3c2[C@H]1Cc1ccc(O)c(O)c1-3 [Apomorphine]
- AVERAGE ROTATION SCORES (Rotations/minutes) Contralateral ([3]; 0.1 mg/kg i.p.): 4.8 Rotations/minutes
- AVERAGE ROTATION SCORES (Rotations/minutes) Ipsilateral ([3]; 0.1 mg/kg i.p.): 0.1 Rotations/minutes
- AVERAGE ROTATION SCORES (Rotations/minutes) Contralateral ([3]; 0.5 mg/kg i.p.): 13.7 Rotations/minutes
- AVERAGE ROTATION SCORES (Rotations/minutes) Ipsilateral ([3]; 0.5 mg/kg i.p.): 0 Rotations/minutes
- circling behavior (in words) [3]: rapid circling behavior to the contralateral side of the lesion

SMILES: CCCCCCCCCCCC(=O)NCCc1ccc(O)c(O)c1
- crossing of the blood brain barrier (in words) [7]: does not effectively cross the blood brain barrier
- activity as an appetite-suppressant (in words) [8]: completely inactive

SMILES: NCCc1ccc(O)c(O)c1 [Dopamine]
- brain penetration index (BPI) [7]: about 4
- BPI Value (%) [7]: 4%
- changes in open-field activity [1]: No significant changes

SMILES: CC/C=C\C/C=C\C/C=C\C/C=C\C/C=C\C/C=C\CCC(=O)NCCc1ccc(O)c(O)c1 [Compound 8739]
- Brain (cpm/g) [7, 13]: 1305 cpm/g and 1297 cpm/g
- Liver (cpm/g) [7, 13]: 4300 cpm/g and 3931 cpm/g
- BPI Value (%) [7]: 30% and 33%
- brain uptake / BPI relative to dopamine [7]: eight times that of dopamine
- brain uptake / BPI relative to dopamine ([7]; listed as compound 8739): over eight-fold higher
- P1 (Nuclear and Cell Membrane Fraction), CPM/mg Protein after 30 min of Uptake [9, 14]: 4.19 CPM/mg Protein and 2.7 CPM/mg Protein
- P2/P1 [9, 14]: 2.9 and 1.9 and 2.1
- factor by which uptake into P2 was greater than into P1, average ([9]; average of the experiments of Table II): 2.3
- percent decrease in open field activity, test group versus control group ([1]; i.p. injection, mice, 90-min period): 40-50%
- decrease in open-field activity ([1]; oral delivery, mice n=6): 40-50%
- activity when given orally compared with injection ([1]; oral vs. i.p.): as active when ingested as when injected; also recorded: without any apparent loss in efficacy
- food consumption, oral administration compared with i.p. ([8]; oral administration, same experiment): The results were the same
- AVERAGE ROTATION SCORES (Rotations/minutes) Contralateral ([3]; 34 mg/kg i.p.): 0.05 Rotations/minutes
- AVERAGE ROTATION SCORES (Rotations/minutes) Ipsilateral ([3]; 34 mg/kg i.p.): 0.08 Rotations/minutes
- AVERAGE ROTATION SCORES (Rotations/minutes) Contralateral ([3]; 51 mg/kg i.p.): 0.12 Rotations/minutes
- AVERAGE ROTATION SCORES (Rotations/minutes) Ipsilateral ([3]; 51 mg/kg i.p.): 0.08 Rotations/minutes
- circling behavior (in words) [3]: failed to produce an effect; also recorded: did not evoke this behavior
- circling behavior (in words) ([3]; listed as compound 8739): do not result
- effect on self-stimulation parameters (reward, motor aspect, motivation) [10]: no effect on either the reward or the motor aspect; also recorded: do not result
- tolerance [11]: no indication of tolerance
- tolerance ([11]; listed as compound 8739): no tolerance was induced
- tolerance ([4]; 20 mg/kg i.p. daily for 21 days): no tolerance had developed
- binding to D-1 dopamine receptors (D-1 dopamine receptors): does not bind
- binding to D-2 dopamine receptors (D-2 dopamine receptors): does not bind
- swelling of the brain (Swelling of the brain): did not induce any swelling
- effects on motor function or motivation [12]: failed to demonstrate any diverse effects
- stereotypy [12]: failed to induce
